Test results reported in patent US20020137929A1, “1 - (3-heterocyclylphenyl) isothiourea, -isourea, -guanidine and -amidine herbicidal agents” (Intellectual Property Department, BASF Aktiengesellschaft, priority 1998, published 2002).

Tests used:
[1] = test system: AMBEL (Ragweed, Common); assay: Postemergence herbicidal evaluation; format: in vivo, Ambrosia artemisifolia; settings: postemergence
Method in brief: (§1)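 Visual 0-9 injury score (stand, vigor, malformation, size, chlorosis, appearance vs untreated) taken four to five weeks post-spray, averaged across repeat tests. Test plants about two weeks old; foliar spray of acetone/water (1:1) with 0.5% surfactant delivering ~0.0156-0.500 kg active/ha.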

[2] = test system: CASOB (Sicklepod); assay: Postemergence herbicidal evaluation; format: in vivo, Cassia obtusifolia; settings: postemergence
Method in brief: as §1

[3] = test system: GALAP (Galium); assay: Postemergence herbicidal evaluation; format: in vivo, Galium aparine; settings: postemergence
Method in brief: as §1

[4] = test system: IPOHE (Morningglory, Ivyleaf); assay: Postemergence herbicidal evaluation; format: in vivo, Ipomoea hederacea; settings: postemergence
Method in brief: as §1

[5] = test system: ABUTH (Velvetleaf); assay: Preemergence herbicidal evaluation; format: in vivo, Abutilon theophrasti; settings: rated 4-5 weeks after treatment
Method in brief: (§2)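 Steps: mix seeds into potting soil; plant atop ~1 inch soil; spray compound in aqueous acetone (~0.0156-0.500 kg/ha equivalent); maintain in greenhouse with watering; rate visually 0-9 versus control at 4-5 weeks.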

[6] = test system: CASOB (Sicklepod); assay: Preemergence herbicidal evaluation; format: in vivo, Cassia obtusifolia; settings: rated 4-5 weeks after treatment
Method in brief: as §2

[7] = test system: IPOHE (Morningglory, Ivyleaf); assay: Preemergence herbicidal evaluation; format: in vivo, Ipomoea hederacea; settings: rated 4-5 weeks after treatment
Method in brief: as §2

[8] = test system: ECHCG (Barnyardgrass); assay: Preemergence herbicidal evaluation; format: in vivo, Echinochloa crus-galli; settings: rated 4-5 weeks after treatment
Method in brief: as §2

[9] = test system: GLXMAW (Soybean, Williams); assay: Preemergence herbicidal evaluation; format: in vivo, Glycine max, (L.) Merr. cv Williams; settings: rated 4-5 weeks after treatment
Method in brief: as §2

[10] = test system: TRZAWR (Wheat, Winter, cv Riband); assay: Preemergence herbicidal evaluation; format: in vivo, Triticum aestivum; settings: rated 4-5 weeks after treatment
Method in brief: as §2

[11] = test system: ZEAMX (Corn, Field); assay: Preemergence herbicidal evaluation; format: in vivo, Zea mays; settings: rated 4-5 weeks after treatment
Method in brief: as §2

[12] = test system: MOOVA (Monochoria); assay: Preemergence weed control under flooded paddy conditions; format: in vivo, Monochoria vaginalis; settings: rated 3-4 weeks after treatment
Method in brief: (§3)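 Silt loam, seeds in top 0.5 cm; flood held 1.5-3 cm; test cpd as acetone/water 50/50 into flood water, ~0.0313-0.500 kg/ha a.i.; greenhouse 3-4 wk; visual 0-9 score vs control.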

[13] = test system: SAGPY (Arrowhead (Pygmaea)); assay: as above; format: in vivo, Sagittaria pygmaea; settings: rated 3-4 weeks after treatment
Method in brief: as §3

[14] = rate 0.0313 kg/ha, rating scale 0-9
[15] = rate 0.0625 kg/ha, rating scale 0-9
[16] = rate 0.1250 kg/ha, rating scale 0-9
[17] = rate 0.2500 kg/ha, rating scale 0-9

CCOC(=O)CN1C(=O)C(C(=O)OCC)SC1=Nc1cc(-n2c(=O)cc(C(F)(F)F)n(C)c2=O)c(F)cc1Cl (centres unmarked) [Compound 127, 5-Carboxy-2-{{2-chloro-5-[3,6-dihydro-3-methyl-2,6-dioxo-4-(trifluoromethyl)-1(2H)-pyrimidinyl]-4-fluorophenyl}imino}-4-oxo-3-thiazolidineacetic acid, diethyl ester]
3.0: herbicidal rating GALAP ([3]; rate 0.1250 kg/ha) | herbicidal effect rating, MOOVA ([12]; 0.0313 kg/ha) | herbicidal effect rating, MOOVA ([12]; 0.0625 kg/ha) | herbicidal effect rating, SAGPY ([13]; 0.2500 kg/ha)
5.0: herbicidal effect rating, MOOVA ([12]; 0.1250 kg/ha)
2.0: herbicidal rating GALAP ([3]; rate 0.0625 kg/ha) | Preemergence herbicidal rating CASOB ([6]; rate 0.2500 kg/ha)
4.0: Preemergence herbicidal rating GLXMAW ([9]; rate 0.2500 kg/ha) | Preemergence herbicidal rating GLXMAW ([9]; rate 0.5000 kg/ha) | Preemergence herbicidal rating ZEAMX ([11]; rate 0.2500 kg/ha)
8.0: Preemergence herbicidal rating ZEAMX ([11]; rate 0.5000 kg/ha)
7.0: Preemergence herbicidal rating ABUTH ([5]; rate 0.0313 kg/ha) | Preemergence herbicidal rating ABUTH ([5]; rate 0.0625 kg/ha) | Preemergence herbicidal rating TRZAWR ([10]; rate 0.5000 kg/ha) | herbicidal effect rating, MOOVA ([12]; 0.2500 kg/ha)
1.0: herbicidal rating CASOB ([2]; rate 0.0625 kg/ha) | herbicidal rating CASOB ([2]; rate 0.1250 kg/ha) | Preemergence herbicidal rating IPOHE ([7]; rate 0.1250 kg/ha)
6.0: Preemergence herbicidal rating CASOB ([6]; rate 0.5000 kg/ha)
0.0: herbicidal rating CASOB ([2]; rate 0.0156 kg/ha) | herbicidal rating CASOB ([2]; rate 0.0313 kg/ha) | herbicidal rating GALAP ([3]; rate 0.0156 kg/ha) | herbicidal rating GALAP ([3]; rate 0.0313 kg/ha) | Preemergence herbicidal rating CASOB ([6]; rate 0.0313 kg/ha) | Preemergence herbicidal rating CASOB ([6]; rate 0.0625 kg/ha) | Preemergence herbicidal rating CASOB ([6]; rate 0.1250 kg/ha) | Preemergence herbicidal rating IPOHE ([7]; rate 0.0313 kg/ha) | Preemergence herbicidal rating IPOHE ([7]; rate 0.0625 kg/ha) | Preemergence herbicidal rating ECHCG ([8]; rate 0.0313 kg/ha) | Preemergence herbicidal rating ECHCG ([8]; rate 0.0625 kg/ha) | Preemergence herbicidal rating ECHCG ([8]; rate 0.1250 kg/ha) | Preemergence herbicidal rating ECHCG ([8]; rate 0.2500 kg/ha) | Preemergence herbicidal rating ECHCG ([8]; rate 0.5000 kg/ha) | Preemergence herbicidal rating GLXMAW ([9]; rate 0.0313 kg/ha) | Preemergence herbicidal rating GLXMAW ([9]; rate 0.0625 kg/ha) | Preemergence herbicidal rating GLXMAW ([9]; rate 0.1250 kg/ha) | Preemergence herbicidal rating TRZAWR ([10]; rate 0.0313 kg/ha) | Preemergence herbicidal rating TRZAWR ([10]; rate 0.0625 kg/ha) | Preemergence herbicidal rating TRZAWR ([10]; rate 0.1250 kg/ha) | Preemergence herbicidal rating TRZAWR ([10]; rate 0.2500 kg/ha) | Preemergence herbicidal rating ZEAMX ([11]; rate 0.0313 kg/ha) | Preemergence herbicidal rating ZEAMX ([11]; rate 0.0625 kg/ha) | Preemergence herbicidal rating ZEAMX ([11]; rate 0.1250 kg/ha) | herbicidal effect rating, SAGPY ([13]; 0.0313 kg/ha) | herbicidal effect rating, SAGPY ([13]; 0.0625 kg/ha) | herbicidal effect rating, SAGPY ([13]; 0.1250 kg/ha)
9.0: herbicidal rating AMBEL ([1]; rate 0.0156 kg/ha) | herbicidal rating AMBEL ([1]; rate 0.0313 kg/ha) | herbicidal rating AMBEL ([1]; rate 0.0625 kg/ha) | herbicidal rating AMBEL ([1]; rate 0.1250 kg/ha) | herbicidal rating IPOHE ([4]; rate 0.0156 kg/ha) | herbicidal rating IPOHE ([4]; rate 0.0313 kg/ha) | herbicidal rating IPOHE ([4]; rate 0.0625 kg/ha) | herbicidal rating IPOHE ([4]; rate 0.1250 kg/ha) | Preemergence herbicidal rating ABUTH ([5]; rate 0.1250 kg/ha) | Preemergence herbicidal rating ABUTH ([5]; rate 0.2500 kg/ha) | Preemergence herbicidal rating ABUTH ([5]; rate 0.5000 kg/ha) | Preemergence herbicidal rating IPOHE ([7]; rate 0.2500 kg/ha) | Preemergence herbicidal rating IPOHE ([7]; rate 0.5000 kg/ha)

CSCCN1C(=O)CSC1=Nc1cc(-n2c(=O)cc(C(F)(F)F)n(C)c2=O)c(F)cc1Cl [Compound 157]
3.0: herbicidal rating CASOB ([2]; rate 0.0625 kg/ha) | herbicidal rating IPOHE ([4]; rate 0.0156 kg/ha)
4.0: Preemergence herbicidal rating ABUTH [5, 16] | Preemergence herbicidal rating GLXMAW [9, 17]
6.0: herbicidal rating IPOHE ([4]; rate 0.0625 kg/ha) | Preemergence herbicidal rating ABUTH [5, 17]
1.0: Preemergence herbicidal rating CASOB [6, 14] | Preemergence herbicidal rating CASOB [6, 16] | Preemergence herbicidal rating IPOHE [7, 16] | Preemergence herbicidal rating ECHCG [8, 16] | Preemergence herbicidal rating GLXMAW [9, 14] | Preemergence herbicidal rating ZEAMX [11, 16] | Preemergence herbicidal rating ZEAMX [11, 17]
2.0: herbicidal rating AMBEL ([1]; rate 0.0156 kg/ha) | herbicidal rating AMBEL ([1]; rate 0.0313 kg/ha) | herbicidal rating GALAP ([3]; rate 0.0625 kg/ha) | Preemergence herbicidal rating IPOHE [7, 17] | Preemergence herbicidal rating GLXMAW [9, 16]
5.0: herbicidal rating AMBEL ([1]; rate 0.0625 kg/ha) | Preemergence herbicidal rating CASOB [6, 17]
7.0: herbicidal rating IPOHE ([4]; rate 0.0313 kg/ha)
0.0: herbicidal rating CASOB ([2]; rate 0.0156 kg/ha) | herbicidal rating CASOB ([2]; rate 0.0313 kg/ha) | herbicidal rating GALAP ([3]; rate 0.0156 kg/ha) | herbicidal rating GALAP ([3]; rate 0.0313 kg/ha) | Preemergence herbicidal rating ABUTH [5, 14] | Preemergence herbicidal rating ABUTH [5, 15] | Preemergence herbicidal rating CASOB [6, 15] | Preemergence herbicidal rating IPOHE [7, 14] | Preemergence herbicidal rating IPOHE [7, 15] | Preemergence herbicidal rating ECHCG [8, 14] | Preemergence herbicidal rating ECHCG [8, 15] | Preemergence herbicidal rating ECHCG [8, 17] | Preemergence herbicidal rating GLXMAW [9, 15] | Preemergence herbicidal rating TRZAWR [10, 14] | Preemergence herbicidal rating TRZAWR [10, 15] | Preemergence herbicidal rating TRZAWR [10, 16] | Preemergence herbicidal rating TRZAWR [10, 17] | Preemergence herbicidal rating ZEAMX [11, 14] | Preemergence herbicidal rating ZEAMX [11, 15] | herbicidal effect rating, MOOVA ([12]; 0.2500 kg/ha) | herbicidal effect rating, SAGPY ([13]; 0.2500 kg/ha)
